# From article PMC3763632, “Radiosynthesis and Radiotracer Properties of a 7-(2-[^18F]Fluoroethoxy)-6-methoxypyrrolidinylquinazoline for Imaging of Phosphodiesterase 10A with PET” (Pharmaceuticals, 2012)
# What was measured:
# [1] = log D7.2-7.4 by shake-flask method; format: physicochemical; conditions: overall value from HPLC and shake-flask determinations; read-out: experimental log D7.0–7.4
# Procedure: To clarify these findings, we determined the ligand distribution coefficients for [^18/19F]IV experimentally, under physiological pH conditions in solid-liquid phase systems via retention on RP-HPLC, and in liquid-liquid phase systems by conventional shake-flask method. […] All in one, an experimental log D7.0–7.4 value of ~2.7 promised a good potential for brain uptake of [^18F]IV in vivo, attended by low unspecific binding.
# Log D7.2–7.4 values of [^18F]IV were determined using a conventional shake-flask method (multiple distribution in triplicates). Measurements of distribution coefficients were performed in 3 series at 21 °C between n-octanol and three aqueous buffer solutions, physiological phosphate-saline (0.1 M Na3PO4, 0.15 M NaCl, pH 7.2), phosphate buffer (KH2PO4/Na2HPO4•2H2O, 50 mM, pH 7.2) or TRIS-HCl buffer (50 mM, pH 7.4 at 21 °C). Solutions of [^18F]IV (2–5 MBq) in MeCN, MeOH (100 μL) or in 5% ethanol/0.9% NaCl (10 μL) were added to a 15 mL polypropylene tube (n = 3 per buffer system) containing a two-layer system of a selected aqueous solution (3 mL) and n-octanol (3 mL). […] Radioactivity of these samples was quantified using a calibrated γ-counter (Wallac WIZARD, Perkin Elmer, Waltham, MA, USA). […] Distribution coefficients and log D7.2–7.4 values of [^18F]IV were calculated with Microcal^TM Origin (6.0, Microcal Software, Inc., Northhampton, MA, USA).
# [2] = Chemical stability in vitro; format: physicochemical; conditions: for native [18F]IV remaining intact: up to 1.5 h
# Procedure: Furthermore, the chemical stability of [^18F]IV in vitro under physiological conditions was investigated. […] For formulation and storage, radioligand stability in acetonitrile (98%, 1 h, 80 °C) and in ethanol (98%, 1 h, 80 °C; ≥99%, 1.5 h, 40 °C) was proven.
# PDE10A = test: In vivo blocking study (pre-injection of PDE10A inhibitor); design: species or system mice
# Procedure: The observed slightly increase in the uptake of radioactivity in most organs might be caused by an increase in the free fraction of [^18F]IV in plasma or changes in physiological parameters such as blood flow due to high concentrations of the blocking compounds.
# Specificity of brain and in particular striatal uptake of [^18F]IV was investigated in blocking studies by intraperitoneal injection of 10 mg/kg of I [31] […] (n = 3), dissolved in 200 µL saline at 10 min before the radiotracer. Mice were sacrificed at 60 min p.i., and the radioligand uptake was determined as described above. Data listed in table 2 are given as mean values ± standard deviation (SD).
# [3] = blocking with 10 mg/kg I, 60 min p.i.
# [4] = blocking with 10 mg/kg MP-10, 60 min p.i.
structure (smiles),measurement,setting,value
"COc1cc2c(N3CC[C@@H](Oc4cnc5ccccc5n4)C3)ncnc2cc1OCC[18F] [[^18F]IV, (R)-7-(2-[^18F]Fluoroethoxy)-6-methoxy-4-(3-(quinoxalin-2-yloxy)pyrrolidin-1-yl)quinazoline]",logD,[1],~2.7
same,native [18F]IV remaining intact,"[2]; 0.01 M TRIS-HCl buffer (pH 7.4 at 21 °C), 40 °C",≥ 99%
same,native [18F]IV remaining intact,"[2]; 0.9% sodium chloride solution (pH 7.2), 40 °C, radio-TLC",≥ 99%
same,radioligand stability,"[2]; acetonitrile, 1 h, 80 °C",98%
same,radioligand stability,"[2]; ethanol, 1 h, 80 °C",98%
same,radioligand stability,"[2]; ethanol, 1.5 h, 40 °C",≥ 99%
same,native [18F]IV remaining intact,"[2]; physiological phosphate-saline (pH 7.2), 40 °C",97%
same,change in accumulated radioactivity in PDE10A-expressing organs after pre-injection of MP-10 or compound I,"PDE10A; 10 mg/kg i.p. 10 min before radiotracer, 60 min p.i., p > 0.05",no significant changes
same,"18F uptake, Adrenals",PDE10A; [3],51.1 ± 17.9 % ID/g
same,"18F uptake, Bladder",PDE10A; [3],2.20 ± 0.49 % ID/g
same,"18F uptake, Blood",PDE10A; [3],1.72 ± 0.16 % ID/g
same,"18F uptake, Brain",PDE10A; [3],1.13 ± 0.17 % ID/g
same,"18F uptake, Colon",PDE10A; [3],1.07 ± 0.22 % ID/g
same,"18F uptake, Femurs",PDE10A; [3],1.62 ± 0.72 % ID/g
same,"18F uptake, Femurs (fl.) (flushed)",PDE10A; [3],0.81 ± 0.13 % ID/g
same,"18F uptake, Gonads",PDE10A; [3],3.30 ± 0.29 % ID/g
same,"18F uptake, Heart",PDE10A; [3],2.30 ± 0.22 % ID/g
same,"18F uptake, Intestine",PDE10A; [3],44.3 ± 9.58 % ID/g
same,"18F uptake, Kidneys",PDE10A; [3],4.01 ± 0.54 % ID/g
same,"18F uptake, Liver",PDE10A; [3],12.9 ± 1.08 % ID/g
same,"18F uptake, Lungs",PDE10A; [3],2.62 ± 0.44 % ID/g
same,"18F uptake, Muscles",PDE10A; [3],1.27 ± 0.25 % ID/g
same,"18F uptake, Pancreas",PDE10A; [3],2.25 ± 0.26 % ID/g
same,"18F uptake, Plasma",PDE10A; [3],2.70 ± 0.24 % ID/g
same,"18F uptake, Skin",PDE10A; [3],2.26 ± 0.82 % ID/g
same,"18F uptake, Spleen",PDE10A; [3],2.48 ± 0.68 % ID/g
same,"18F uptake, Stomach",PDE10A; [3],13.8 ± 1.65 % ID/g
same,"18F uptake, Striatum",PDE10A; [3],1.28 ± 0.27 % ID/g
same,"18F uptake, Thymus",PDE10A; [3],2.22 ± 0.08 % ID/g
same,"18F uptake, Urine",PDE10A; [3],18.0 ± 9.26 % ID/g
same,"18F uptake, Adrenals",PDE10A; [4],36.0 ± 9.51 % ID/g
same,"18F uptake, Bladder",PDE10A; [4],2.93 ± 0.51 % ID/g
same,"18F uptake, Blood",PDE10A; [4],1.85 ± 0.50 % ID/g
same,"18F uptake, Brain",PDE10A; [4],1.30 ± 0.20 % ID/g
same,"18F uptake, Colon",PDE10A; [4],1.78 ± 0.78 % ID/g
same,"18F uptake, Femurs",PDE10A; [4],1.73 ± 0.58 % ID/g
same,"18F uptake, Femurs (fl.) (flushed)",PDE10A; [4],0.92 ± 0.23 % ID/g
same,"18F uptake, Gonads",PDE10A; [4],4.10 ± 1.41 % ID/g
same,"18F uptake, Heart",PDE10A; [4],2.89 ± 0.42 % ID/g
same,"18F uptake, Intestine",PDE10A; [4],14.8 ± 4.16 % ID/g
same,"18F uptake, Kidneys",PDE10A; [4],5.87 ± 1.56 % ID/g
same,"18F uptake, Liver",PDE10A; [4],17.7 ± 3.87 % ID/g
same,"18F uptake, Lungs",PDE10A; [4],2.95 ± 0.86 % ID/g
same,"18F uptake, Muscles",PDE10A; [4],1.29 ± 0.37 % ID/g
same,"18F uptake, Pancreas",PDE10A; [4],3.19 ± 0.91 % ID/g
same,"18F uptake, Plasma",PDE10A; [4],3.34 ± 1.00 % ID/g
same,"18F uptake, Skin",PDE10A; [4],2.43 ± 0.44 % ID/g
same,"18F uptake, Spleen",PDE10A; [4],3.00 ± 0.79 % ID/g
same,"18F uptake, Stomach",PDE10A; [4],14.6 ± 7.83 % ID/g
same,"18F uptake, Striatum",PDE10A; [4],1.38 ± 0.30 % ID/g
same,"18F uptake, Thymus",PDE10A; [4],2.55 ± 0.62 % ID/g
same,"18F uptake, Urine",PDE10A; [4],14.7 ± 7.17 % ID/g
